In the assay the test system is A431 cells. Briefly: in vitro uptake competition experiments with glucose. It is filed as cell-based, human. The note with it: 1 mM (monovalent) or 0.7 mM (bivalent) probe, 30 minutes, 50 and 100 mM glucose respectively, FIGS. 3B and 3D. The method, then:
The A431 cell line was obtained from the American Type Culture Collection and grown in DMEM with 4.5 g/l glucose, supplemented with 10% fetal bovine serum (Life Technologies, NY) and cultured in a humidified atmosphere containing 5% CO2 and 95% air at 37° C.
Utilizing the monovalent and bivalent Cy5.5-conjugated glucose probes, in vitro uptake competition experiments were performed by incubating A431 cells with 1 mM (monovalent) or 0.7 mM (bivalent) of each probe, for 30 minutes, in the presence of 50 and 100 mM glucose, respectively. After removal of the medium, cells were rinsed with ice-cold PBS and visualized under confocal microscopy. […] Under the same conditions, free Cy5.5 uptake by A431 cells was not inhibited by incubation with glucose.

SMILES strings stand for the structures.

Take `CCN1\C(=C/C=C/C=C/C2=[N+](CCCCCC(=O)O)c3ccc4c(S(=O)(=O)O)cc(S(=O)(=O)O)cc4c3C2(C)C)C(C)(C)c2c1ccc1c(S(=O)(=O)[O-])cc(S(=O)(=O)O)cc21` [free Cy5.5]: the “inhibition of cellular uptake of probe by glucose” value was “not inhibited”.

The values above are taken from patent publication US20110171136A1, “OPTICAL IMAGING PROBES” (priority 2002, published 2011).
